Reference: US5677419A, “Cyclic vasoactive peptide analogs” (Hoffmann-La Roche Inc., priority 1994, dated 1997)
Where a SMILES comes first, the peptide text is derived from it. Bridges are numbered along the chain shown (N, C = ends). [ ]: non-standard residue; d: D form. Phe(4-NH2) = Nc1ccc(C[C@H](N)C(=O)O)cc1; Phe(4-F) = N[C@@H](Cc1ccc(F)cc1)C(=O)O; 1Nal = N[C@@H](Cc1cccc2ccccc12)C(=O)O; 2Nal = N[C@@H](Cc1ccc2ccccc2c1)C(=O)O; Nle = CCCC[C@H](N)C(=O)O; Orn = NCCC[C@H](N)C(=O)O

Tested on: guinea pig tracheal smooth muscle
Experiment: Tracheal relaxant activity of VIP analogs on isolated guinea pig tracheal rings
Assay type: cell-based
Settings: cumulative concentration response, relaxation as % of maximum response to VIP (10^-6 M=100%), three tissues pooled, linear regression
Experimental: The relaxant activity of the VIP analogs were studied in a model utilizing guinea pig trachea. [Wasserman, M. A. et al., in Vasoactive Intestinal Peptide, S. I. Said, ed., Raven Press, New York 1982, pp 177-184] All tissues were taken from male albino guinea pig weighing 400-600 g, anesthetized with urethane (2 g/kg, i.p.). After exanguination, the trachea were removed and divided into four ring segments (3 mm length). Each ring was suspended by 30 gauge stainless steel wires in a 10 mL jacketed tissue bath and attached via 4-0 silk thread to a GRASS force displacement transducer (model FT03C, Grass Instruments Co., Quincy, Mass.), for isometric recording of tension. The smooth muscle was bathed in modified Krebs solution of the following composition: NaCl, 120 mM; KCl, 4.7 mM; CaCl2, 2.5 mM; MgSO4.7H2 O, 1.2 mM; NaHCO3, 25 mM; K2 HPO4 monobasic, 1.2 mM; and dextrose, 10 mM. Tissue baths were maintained at 37° C. and constantly bubbled with 95% O2 and 5% CO2. Responses were recorded on an 8 channel and a 4 channel HEWLETT-PACKARD (model 7702B and 7754A, respectively) recorder (Hewlett- Packard, Paramus, N.J.). Tracheal rings were placed under a resting tension of 1.5 g which was determined to be at or near optimal in preliminary experiments. Frequent readjustments of tension were required during the 60 minute stabilization period which followed. Tissues were rinsed at 15 minute intervals.
Cumulative concentration response curves were obtained for each tissue by successive […] increases in the bath concentration of VIP or VIP analogs according to the method of VanRossum [Arch. Int. Pharmacodyn., 143, 299-330 (1963)]. Only one cumulative dose response curve was obtained on a single tissue. To minimize variability between tissues, relaxant responses were expressed as a percentage of the maximum response obtained to VIP (10^-6 M=100%) added at the end of each concentration response experiment. Responses obtained from three tissues were pooled and EC50 values were determined by linear regression.
The results summarized in Table I show the tracheal relaxant activity of the VIP analogs in comparison to native VIP.

Row | SMILES | EC50
1 | CCCC[C@H](NC(=O)[C@H](CCC(N)=O)NC(=O)[C@H](CCCCN)NC(=O)[C@H](CCCNC(=N)N)NC(=O)[C@H](CC(C)C)NC(=O)[C@H](CC(C)C)NC(=O)[C@@H](NC(=O)[C@H](Cc1ccc(N)cc1)NC(=O)[C@H](CC(N)=O)NC(=O)[C@H](CC(=O)O)NC(=O)[C@@H](NC(=O)[C@H](Cc1ccc(F)cc1)NC(=O)[C@@H](NC(=O)[C@H](C)NC(=O)[C@H](CC(=O)O)NC(=O)[C@H](CO)NC(=O)[C@H](Cc1c[nH]cn1)NC(C)=O)C(C)C)[C@@H](C)O)[C@@H](C)O)C(=O)N[C@@H](C)C(=O)N[C@@H](C)C(=O)N[C@@H](CCCCN)C(=O)N[C@H]1CCCCNC(=O)C[C@@H](C(=O)N[C@H](C(=O)N[C@@H](CC(C)C)C(=O)N[C@H](C(N)=O)[C@@H](C)O)C(C)C)NC(=O)[C@H](CC(N)=O)NC(=O)[C@H](CC(C)C)NC(=O)[C@H](Cc2ccc(O)cc2)NC1=O [SEQ ID NO:37, Ac-[p-F-Phe^6,p-NH2 -Phe^10,Leu^12,Nle^17,Ala^19,Asp^25,Val^26,Thr^28]-VIP cyclo (Lys^21 →Asp^25)] (Ac-HSDAV[Phe(4-F)]TDN[Phe(4-NH2)]TLLRKQ[Nle]AAKKYLNDVLT-NH2; lactam 21-25) | 4.4 nM
2 | CCCC[C@H](NC(=O)[C@H](CCC(N)=O)NC(=O)[C@H](CCCCN)NC(=O)[C@H](CCCNC(=N)N)NC(=O)[C@H](CC(C)C)NC(=O)[C@@H]1CCCCNC(=O)C[C@H](NC(=O)[C@@H](NC(=O)[C@H](Cc2ccccc2)NC(=O)[C@@H](NC(=O)[C@H](C)NC(=O)[C@H](CC(=O)O)NC(=O)[C@H](CO)NC(=O)[C@H](Cc2c[nH]cn2)NC(C)=O)C(C)C)[C@@H](C)O)C(=O)N[C@@H](CC(N)=O)C(=O)N[C@@H](Cc2ccc(O)cc2)C(=O)N[C@@H]([C@@H](C)O)C(=O)N1)C(=O)N[C@@H](C)C(=O)N[C@H](C(=O)N[C@@H](CCCCN)C(=O)N[C@@H](CCCCN)C(=O)N[C@@H](Cc1ccc(O)cc1)C(=O)N[C@@H](CC(C)C)C(=O)N[C@@H](CC(N)=O)C(=O)N[C@@H](CO)C(=O)N[C@H](C(=O)N[C@@H](CC(C)C)C(=O)N[C@H](C(N)=O)[C@@H](C)O)C(C)C)C(C)C [SEQ ID NO:20, Ac-[Lys^12,Nle^17,Val^26,Thr^28]-VIP cyclo (Asp^8 →Lys^12)] (Ac-HSDAVFTDNYTKLRKQ[Nle]AVKKYLNSVLT-NH2; lactam 8-12) | 14 nM
3 | CCCC[C@H](NC(=O)[C@H](CCC(N)=O)NC(=O)[C@H](CCCCN)NC(=O)[C@H](CCCNC(=N)N)NC(=O)[C@H](CC(C)C)NC(=O)[C@H](CCCCN)NC(=O)[C@@H](NC(=O)[C@H](Cc1ccc(O)cc1)NC(=O)[C@H](CC(N)=O)NC(=O)[C@H](CC(=O)O)NC(=O)[C@@H](NC(=O)[C@H](Cc1cccc2ccccc12)NC(=O)[C@@H](NC(=O)[C@H](C)NC(=O)[C@H](CC(=O)O)NC(=O)[C@H](CO)NC(=O)[C@H](Cc1c[nH]cn1)NC(C)=O)C(C)C)[C@@H](C)O)[C@@H](C)O)C(=O)N[C@@H](C)C(=O)N[C@@H](C)C(=O)N[C@@H](CCCCN)C(=O)N[C@H]1CCCCNC(=O)C[C@@H](C(=O)N[C@H](C(=O)N[C@@H](CC(C)C)C(=O)N[C@H](C(N)=O)[C@@H](C)O)C(C)C)NC(=O)[C@H](CC(N)=O)NC(=O)[C@H](CC(C)C)NC(=O)[C@H](Cc2ccc(O)cc2)NC1=O [SEQ ID NO:50, Ac-[1-Nal^6,Lys^12,Nle^17,Ala^19,Asp^25,Val^26,Thr^28]-VIP cyclo (Lys^21 →Asp^25)] (Ac-HSDAV[1Nal]TDNYTKLRKQ[Nle]AAKKYLNDVLT-NH2; lactam 21-25) | 2.9 nM
4 | CCCC[C@H](NC(=O)[C@H](CCC(N)=O)NC(=O)[C@H](CCCCN)NC(=O)[C@H](CCCNC(=N)N)NC(=O)[C@H](CC(C)C)NC(=O)[C@@H]1CCCNC(=O)C[C@H](NC(=O)[C@@H](NC(=O)[C@H](Cc2ccccc2)NC(=O)[C@@H](NC(=O)[C@H](C)NC(=O)[C@H](CC(=O)O)NC(=O)[C@H](CO)NC(=O)[C@H](Cc2c[nH]cn2)NC(C)=O)C(C)C)[C@@H](C)O)C(=O)N[C@@H](CC(N)=O)C(=O)N[C@@H](Cc2ccc(O)cc2)C(=O)N[C@@H]([C@@H](C)O)C(=O)N1)C(=O)N[C@@H](C)C(=O)N[C@H](C(=O)N[C@@H](CCCCN)C(=O)N[C@@H](CCCCN)C(=O)N[C@@H](Cc1ccc(O)cc1)C(=O)N[C@@H](CC(C)C)C(=O)N[C@@H](CC(N)=O)C(=O)N[C@@H](CO)C(=O)N[C@H](C(=O)N[C@@H](CC(C)C)C(=O)N[C@H](C(N)=O)[C@@H](C)O)C(C)C)C(C)C [SEQ ID NO:23, Ac-[Orn^12,Nle^17,Val^26,Thr^28]-VIP cyclo (Asp^8 →Orn^12)] (Ac-HSDAVFTDNYT[Orn]LRKQ[Nle]AVKKYLNSVLT-NH2; lactam 8-12) | 40 nM

Further molecules by falling EC50, results first:

Row | EC50 | SMILES
5 | 38 nM | CCCC[C@H](NC(=O)[C@H](CCC(N)=O)NC(=O)[C@H](CCCCN)NC(=O)[C@H](CCCNC(=N)N)NC(=O)[C@H](CC(C)C)NC(=O)[C@@H]1CC(=O)NCCCC[C@H](NC(=O)[C@@H](NC(=O)[C@H](Cc2ccccc2)NC(=O)[C@@H](NC(=O)[C@H](C)NC(=O)[C@H](CC(=O)O)NC(=O)[C@H](CO)NC(=O)[C@H](Cc2c[nH]cn2)NC(C)=O)C(C)C)[C@@H](C)O)C(=O)N[C@@H](CC(N)=O)C(=O)N[C@@H](Cc2ccc(O)cc2)C(=O)N[C@@H]([C@@H](C)O)C(=O)N1)C(=O)N[C@@H](C)C(=O)N[C@H](C(=O)N[C@@H](CCCCN)C(=O)N[C@@H](CCCCN)C(=O)N[C@@H](Cc1ccc(O)cc1)C(=O)N[C@@H](CC(C)C)C(=O)N[C@@H](CC(N)=O)C(=O)N[C@@H](CO)C(=O)N[C@H](C(=O)N[C@@H](CC(C)C)C(=O)N[C@H](C(N)=O)[C@@H](C)O)C(C)C)C(C)C [SEQ ID NO:24, Ac-[Lys^8,Asp^12,Nle^17,Val^26,Thr^28]-VIP cyclo (Lys^8 →Asp^12)] (Ac-HSDAVFTKNYTDLRKQ[Nle]AVKKYLNSVLT-NH2; lactam 8-12)
6 | 34 nM | CCCC[C@H](NC(=O)[C@H](CCC(N)=O)NC(=O)[C@H](CCCCN)NC(=O)[C@H](CCCNC(=N)N)NC(=O)[C@H](CC(C)C)NC(=O)[C@@H]1CCCCNC(=O)CC[C@H](NC(=O)[C@@H](NC(=O)[C@H](Cc2ccccc2)NC(=O)[C@@H](NC(=O)[C@H](C)NC(=O)[C@H](CC(=O)O)NC(=O)[C@H](CO)NC(=O)[C@H](Cc2c[nH]cn2)NC(C)=O)C(C)C)[C@@H](C)O)C(=O)N[C@@H](CC(N)=O)C(=O)N[C@@H](Cc2ccc(O)cc2)C(=O)N[C@@H]([C@@H](C)O)C(=O)N1)C(=O)N[C@@H](C)C(=O)N[C@H](C(=O)N[C@@H](CCCCN)C(=O)N[C@@H](CCCCN)C(=O)N[C@@H](Cc1ccc(O)cc1)C(=O)N[C@@H](CC(C)C)C(=O)N[C@@H](CC(N)=O)C(=O)N[C@@H](CO)C(=O)N[C@H](C(=O)N[C@@H](CC(C)C)C(=O)N[C@H](C(N)=O)[C@@H](C)O)C(C)C)C(C)C [SEQ ID NO:21, Ac-[Glu^8,Lys^12,Nle^17,Val^26,Thr^28]-VIP cyclo (Glu^8 →Lys^12)] (Ac-HSDAVFTENYTKLRKQ[Nle]AVKKYLNSVLT-NH2; lactam 8-12)
7 | 16 nM | CCCC[C@H](NC(=O)[C@H](CCC(N)=O)NC(=O)[C@H](CCCCN)NC(=O)[C@H](CCCNC(=N)N)NC(=O)[C@H](CC(C)C)NC(=O)[C@@H]1CCCNC(=O)CC[C@H](NC(=O)[C@@H](NC(=O)[C@H](Cc2ccccc2)NC(=O)[C@@H](NC(=O)[C@H](C)NC(=O)[C@H](CC(=O)O)NC(=O)[C@H](CO)NC(=O)[C@H](Cc2c[nH]cn2)NC(C)=O)C(C)C)[C@@H](C)O)C(=O)N[C@@H](CC(N)=O)C(=O)N[C@@H](Cc2ccc(O)cc2)C(=O)N[C@@H]([C@@H](C)O)C(=O)N1)C(=O)N[C@@H](C)C(=O)N[C@H](C(=O)N[C@@H](CCCCN)C(=O)N[C@@H](CCCCN)C(=O)N[C@@H](Cc1ccc(O)cc1)C(=O)N[C@@H](CC(C)C)C(=O)N[C@@H](CC(N)=O)C(=O)N[C@@H](CO)C(=O)N[C@H](C(=O)N[C@@H](CC(C)C)C(=O)N[C@H](C(N)=O)[C@@H](C)O)C(C)C)C(C)C [SEQ ID NO:25, Ac-[Glu^8,Orn^12,Nle^17,Val^26,Thr^28]-VIP cyclo (Glu^8 →Orn^12)] (Ac-HSDAVFTENYT[Orn]LRKQ[Nle]AVKKYLNSVLT-NH2; lactam 8-12)
8 | 4.2 nM | CCCC[C@H](NC(=O)[C@H](CCC(N)=O)NC(=O)[C@H](CCCCN)NC(=O)[C@H](CCCNC(=N)N)NC(=O)[C@H](CC(C)C)NC(=O)[C@H](CC(C)C)NC(=O)[C@@H](NC(=O)[C@H](Cc1ccc2ccccc2c1)NC(=O)[C@H](CC(N)=O)NC(=O)[C@H](CC(=O)O)NC(=O)[C@@H](NC(=O)[C@H](Cc1ccccc1)NC(=O)[C@@H](NC(=O)[C@H](C)NC(=O)[C@H](CC(=O)O)NC(=O)[C@H](CO)NC(=O)[C@H](Cc1c[nH]cn1)NC(C)=O)C(C)C)[C@@H](C)O)[C@@H](C)O)C(=O)N[C@@H](C)C(=O)N[C@@H](C)C(=O)N[C@@H](CCCCN)C(=O)N[C@H]1CCCCNC(=O)C[C@@H](C(=O)N[C@H](C(=O)N[C@@H](CC(C)C)C(=O)N[C@H](C(N)=O)[C@@H](C)O)C(C)C)NC(=O)[C@H](CC(N)=O)NC(=O)[C@H](CC(C)C)NC(=O)[C@H](Cc2ccc(O)cc2)NC1=O [SEQ ID NO:35, Ac-[2-Nal^10,Leu^12,Nle^17,Ala^19,Asp^25,Val^26,Thr^28]-VIP cyclo (Lys^21 →Asp^25)] (Ac-HSDAVFTDN[2Nal]TLLRKQ[Nle]AAKKYLNDVLT-NH2; lactam 21-25)
